pIC50: −log10 of the molar value.
Experiments:
[1] = target: Sodium-dependent serotonin transporter (Homo sapiens, UniProt P31645); assay type: cell-based, HEK293; details: for IC50: hek293; for pIC50: read-out: IC50
Description: Inhibition of wild type human SERT expressed in HEK293 cells assessed as inhibition of [3H]-5HT reuptake preincubated for 5 mins followed by [3H]5HT addition and measured after 1 min by liquid scintillation counting analysis

[2] = target: Sodium-dependent dopamine transporter (Homo sapiens, UniProt Q01959); test: Inhibition of wild type human dopamine transporter expressed in HEK293 cells assessed as inhibition of [3H]dopamine reuptake preincubated for 5 mins followed by [3H]dopamine addition and measured after 1 min by liquid scintillation analysis; assay type: cell-based; details: for pIC50: read-out: IC50; for IC50: hek293
Sequence of Sodium-dependent dopamine transporter (Q01959 whole entry): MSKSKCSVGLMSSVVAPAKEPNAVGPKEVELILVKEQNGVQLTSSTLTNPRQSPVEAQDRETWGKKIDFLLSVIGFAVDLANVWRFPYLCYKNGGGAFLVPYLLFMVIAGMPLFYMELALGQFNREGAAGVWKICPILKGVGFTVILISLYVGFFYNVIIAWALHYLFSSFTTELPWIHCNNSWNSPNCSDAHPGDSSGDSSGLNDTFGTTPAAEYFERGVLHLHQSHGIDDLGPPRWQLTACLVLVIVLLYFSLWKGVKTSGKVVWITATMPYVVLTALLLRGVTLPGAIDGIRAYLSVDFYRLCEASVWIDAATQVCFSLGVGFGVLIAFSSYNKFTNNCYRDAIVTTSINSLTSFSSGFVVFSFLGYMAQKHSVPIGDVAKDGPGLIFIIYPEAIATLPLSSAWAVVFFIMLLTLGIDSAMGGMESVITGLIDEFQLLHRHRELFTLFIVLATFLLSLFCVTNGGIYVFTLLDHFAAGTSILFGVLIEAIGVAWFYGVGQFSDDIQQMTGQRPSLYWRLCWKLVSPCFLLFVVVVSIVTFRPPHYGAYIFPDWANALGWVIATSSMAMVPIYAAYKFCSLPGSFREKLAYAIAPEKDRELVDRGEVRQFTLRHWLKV

[3] = target: Sodium-dependent noradrenaline transporter (Homo sapiens, UniProt P23975); test: Inhibition of wild type human NET expressed in HEK293 cells assessed as inhibition of [3H]-MPP+ reuptake preincubated for 5 mins followed by [3H]MPP+ addition and measured after 3 mins by liquid scintillation counting analysis; assay type: cell-based; details: for IC50: hek293; for pIC50: read-out: IC50
Sequence of Sodium-dependent noradrenaline transporter (P23975 whole entry): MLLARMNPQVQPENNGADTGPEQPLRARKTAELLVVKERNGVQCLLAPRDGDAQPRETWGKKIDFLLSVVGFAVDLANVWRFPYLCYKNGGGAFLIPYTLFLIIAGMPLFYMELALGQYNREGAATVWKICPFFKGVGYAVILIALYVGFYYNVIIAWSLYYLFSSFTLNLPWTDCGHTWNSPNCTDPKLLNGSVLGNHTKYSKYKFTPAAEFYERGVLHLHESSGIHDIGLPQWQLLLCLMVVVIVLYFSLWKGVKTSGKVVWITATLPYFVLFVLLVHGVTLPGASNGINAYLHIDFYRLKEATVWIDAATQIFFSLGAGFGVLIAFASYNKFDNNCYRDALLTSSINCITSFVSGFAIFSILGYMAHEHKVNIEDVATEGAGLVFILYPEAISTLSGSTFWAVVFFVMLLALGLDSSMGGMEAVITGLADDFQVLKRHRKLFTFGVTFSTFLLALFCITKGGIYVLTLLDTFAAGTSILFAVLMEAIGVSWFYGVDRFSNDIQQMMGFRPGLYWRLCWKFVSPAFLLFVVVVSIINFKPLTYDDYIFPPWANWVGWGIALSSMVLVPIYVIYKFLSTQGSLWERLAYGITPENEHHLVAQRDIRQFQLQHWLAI

Sequence of Sodium-dependent serotonin transporter (P31645 whole entry): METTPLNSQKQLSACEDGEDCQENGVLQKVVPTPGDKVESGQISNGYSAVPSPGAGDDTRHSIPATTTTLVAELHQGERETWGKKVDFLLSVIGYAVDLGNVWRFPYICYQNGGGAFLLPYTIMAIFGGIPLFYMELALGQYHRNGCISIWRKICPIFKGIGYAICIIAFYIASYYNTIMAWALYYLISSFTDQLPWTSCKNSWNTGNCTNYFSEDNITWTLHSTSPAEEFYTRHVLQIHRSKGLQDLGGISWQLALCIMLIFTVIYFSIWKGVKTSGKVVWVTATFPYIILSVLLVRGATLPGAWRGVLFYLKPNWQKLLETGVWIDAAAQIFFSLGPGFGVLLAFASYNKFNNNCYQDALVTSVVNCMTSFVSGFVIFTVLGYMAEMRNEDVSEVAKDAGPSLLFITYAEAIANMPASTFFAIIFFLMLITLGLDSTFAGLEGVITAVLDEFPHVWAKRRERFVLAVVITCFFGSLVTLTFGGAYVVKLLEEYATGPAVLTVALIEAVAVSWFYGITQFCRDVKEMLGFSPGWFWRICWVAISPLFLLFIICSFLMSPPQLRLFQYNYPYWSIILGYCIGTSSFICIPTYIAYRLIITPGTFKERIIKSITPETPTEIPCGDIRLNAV

Structure (SMILES)	IC50 [1]	pIC50 [2]	IC50 [3]	pIC50 [3]	pIC50 [1]	IC50 [2]
CC(C)(C)c1ncc(C[S+]([O-])C(c2ccccc2)c2ccccc2)s1 (centres undefined)	Not Active	4.22	Not Active	–	–	–
[O-][S+](Cc1csc(Cl)n1)C(c1ccccc1)c1ccccc1 (racemic)	Not Active	5.52	Not Active	–	–	–
Cc1ccc(C(c2ccc(C)cc2)[S+]([O-])Cc2nccs2)cc1 (centres undefined)	Not Active	4.53	Not Active	–	–	–
[O-][S@@+](Cc1cncs1)[C@H](c1ccccc1)c1ccc(C(F)(F)F)cc1	Not Active	4.42	Not Active	–	–	–
[O-][S+](Cc1cnc(Cl)s1)C(c1ccccc1)c1ccccc1 (centres undefined)	Not Active	4.61	–	3.97	–	–
CCc1nc(C[S+]([O-])C(c2ccccc2)c2ccccc2)cs1 (centres undefined)	Not Active	4.83	Not Active	–	–	–
[O-][S@@+](Cc1cncs1)[C@@H](c1ccccc1)c1ccc(Br)cc1	Not Active	5.80	–	3.25	–	–
COc1ccc(C(c2ccc(OC)cc2)[S+]([O-])Cc2csc(C3CC3)n2)cc1 (centres undefined)	Not Active	3.98	Not Active	–	–	–
COc1ccc([C@@H](c2ccccc2)[S@+]([O-])Cc2cncs2)cc1	–	4.44	–	3.58	4.61	–
Cc1ccc(C(c2ccc(C)cc2)[S+]([O-])Cc2cncs2)cc1 (racemic)	–	4.98	–	3.67	–	–
COc1ncc(C[S+]([O-])C(c2ccccc2)c2ccccc2)s1 (centres undefined)	Not Active	4.14	–	3.86	–	–
[O-][S@+](Cc1cncs1)[C@H](c1ccccc1)c1ccc(F)cc1	–	5.08	–	3.64	3.84	–
Cc1nc(CC[S+]([O-])C(c2ccccc2)c2ccccc2)cs1 (centres undefined)	Not Active	4.21	Not Active	–	–	–
[O-][S+](Cc1csc(C2CC2)n1)C(c1ccc(Cl)cc1)c1ccc(Cl)cc1 (centres undefined)	Not Active	4.85	Not Active	–	–	–
[O-][S@@+](Cc1cncs1)C(c1ccc(Cl)cc1)c1ccc(Cl)cc1	Not Active	5.39	–	4.05	–	–
Cc1nc(C)c(C[S+]([O-])C(c2ccccc2)c2ccccc2)s1 (centres undefined)	Not Active	4.06	Not Active	–	–	–
[O-][S@+](Cc1cncs1)[C@@H](c1ccccc1)c1ccc(C(F)(F)F)cc1	Not Active	–	Not Active	–	–	Not Active
[O-][S+](Cc1cncs1)C(c1ccc(Cl)cc1)c1ccc(Cl)cc1 (racemic)	–	5.38	–	4.34	3.66	–
CC(C)c1nc(C[S+]([O-])C(c2ccccc2)c2ccccc2)cs1 (centres undefined)	Not Active	4.61	Not Active	–	–	–
[O-][S+](Cc1cscn1)C(c1ccccc1)c1ccc(Br)cc1 (racemic)	Not Active	5.73	–	3.96	–	–
COc1ccc(C(c2ccc(OC)cc2)[S+]([O-])Cc2cncs2)cc1 (centres undefined)	Not Active	4.15	Not Active	–	–	–
[O-][S@@+](Cc1cncs1)[C@@H](c1ccccc1)c1ccc(C(F)(F)F)cc1	Not Active	4.40	Not Active	–	–	–
[O-][S+](Cc1nccs1)C1c2ccccc2-c2ccccc21 (centres undefined)	Not Active	–	Not Active	–	–	Not Active
[O-][S+](Cc1csc(-c2cccs2)n1)C(c1ccccc1)c1ccccc1 (racemic)	Not Active	5.16	–	3.96	–	–
[O-][S+](Cc1cnc(C23CC4CC(CC(C4)C2)C3)s1)C(c1ccccc1)c1ccccc1 (centres undefined)	Not Active	–	–	–	–	–
Cc1ccc(C(c2ccc(C)cc2)[S+]([O-])Cc2cncs2)cc1 (stereo in doubt; 34b)	Not Active	3.45	–	–	–	–

Reference: ChEMBL document CHEMBL4376858, “Structure-Activity Relationships of Novel Thiazole-Based Modafinil Analogues Acting at Monoamine Transporters” (J Med Chem, 2020)
